Data: patent publication EP2351737A1, “3-Amino-1-arylpropyl indoles and aza-substituted indoles” (F. Hoffmann-La Roche AG, priority 2005, dated 2007)

Columns and labels:
[1] = target: T1, Human Serotonin Transporter (hSERT) (Homo sapiens, UniProt P31645); assay: Human Serotonin Transporter (hSERT) Scintillation Proximity Assay (SPA), competition with [3H]-Citalopram; type: binding; settings: membranes of HEK-293 cells expressing recombinant hSERT, Ki by Cheng-Prusoff; for Ki: read-out: pKi SERT (converted)
T1 construct: expressed in transfected cells; membranes prepared from them

[2] = target: Human Norepinephrine Transporter (hNET) (Homo sapiens, UniProt P23975); assay: Human Norepinephrine Transporter (hNET) Scintillation Proximity Assay (SPA), competition with [3H]-Nisoxetine; settings: membranes of HEK-293 cells expressing recombinant hNET, Ki by Cheng-Prusoff; for Ki: pKi NET
Human Norepinephrine Transporter (hNET), sequence (P23975 whole entry): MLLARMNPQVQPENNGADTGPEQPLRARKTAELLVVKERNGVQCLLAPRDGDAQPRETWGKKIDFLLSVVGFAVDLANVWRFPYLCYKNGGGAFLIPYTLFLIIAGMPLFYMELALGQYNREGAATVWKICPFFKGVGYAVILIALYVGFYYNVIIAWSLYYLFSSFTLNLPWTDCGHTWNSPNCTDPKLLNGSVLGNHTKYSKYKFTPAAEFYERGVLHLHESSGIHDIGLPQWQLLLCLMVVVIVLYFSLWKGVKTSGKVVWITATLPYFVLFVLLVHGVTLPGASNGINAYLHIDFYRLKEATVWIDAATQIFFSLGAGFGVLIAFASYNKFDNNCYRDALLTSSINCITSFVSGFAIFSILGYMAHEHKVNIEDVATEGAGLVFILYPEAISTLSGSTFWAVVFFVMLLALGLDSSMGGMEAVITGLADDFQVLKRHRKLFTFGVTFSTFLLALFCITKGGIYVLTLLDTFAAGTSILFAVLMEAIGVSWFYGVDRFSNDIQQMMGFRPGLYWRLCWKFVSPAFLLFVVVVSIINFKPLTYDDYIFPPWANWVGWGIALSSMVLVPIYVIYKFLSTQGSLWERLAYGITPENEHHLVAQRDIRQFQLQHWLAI

T1 sequence (P31645 whole entry): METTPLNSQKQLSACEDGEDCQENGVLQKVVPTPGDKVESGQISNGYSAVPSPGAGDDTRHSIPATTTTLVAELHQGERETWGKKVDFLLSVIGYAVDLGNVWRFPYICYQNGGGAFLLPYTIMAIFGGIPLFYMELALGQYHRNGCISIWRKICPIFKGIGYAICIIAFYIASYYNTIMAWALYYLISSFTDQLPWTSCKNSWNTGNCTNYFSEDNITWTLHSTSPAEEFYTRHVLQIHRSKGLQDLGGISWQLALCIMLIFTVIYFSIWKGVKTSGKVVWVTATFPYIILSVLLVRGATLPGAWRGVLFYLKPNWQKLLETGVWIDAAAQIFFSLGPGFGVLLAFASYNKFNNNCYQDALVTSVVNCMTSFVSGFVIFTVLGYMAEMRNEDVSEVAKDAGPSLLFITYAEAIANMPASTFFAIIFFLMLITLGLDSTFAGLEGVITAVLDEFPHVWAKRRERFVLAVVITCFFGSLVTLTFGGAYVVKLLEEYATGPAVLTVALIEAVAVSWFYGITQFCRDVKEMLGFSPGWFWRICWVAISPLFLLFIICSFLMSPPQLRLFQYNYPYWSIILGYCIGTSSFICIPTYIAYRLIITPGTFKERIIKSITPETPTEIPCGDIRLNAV

Compound | Ki [1] | Ki [2] | pKi SERT [1] | pKi NET [2]
CNCCC(c1ccc2[nH]ccc2c1)c1ccc2cc[nH]c2c1 (centres unmarked) [Compound 117, [3-(1H-Indol-6-yl)-3-(1H-indol-5-yl)-propyl]-methyl-amine] | 8.91 nM | 5.89 nM |  | 
NCCC(c1ccc2[nH]ccc2c1)c1ccc2[nH]ccc2c1 [Compound 119, 3,3-Bis-(1H-indol-5-yl)-propylamine] | 72.4 nM | 11.5 nM |  | 
[3,3-Bis-(1H-indol-5-yl)-propyl]-methyl-amine [Compound 111] |  |  | 7.92 | 9.12
[3,3-Bis-(7-fluoro-1H-indol-5-yl)-propyl]-methyl-amine [Compound 118] |  |  | 7.43 | 8.87
[3-(1-Methanesulfonyl-1H-indol-5-yl)-3-phenyl-propyl]-methyl-amine hydrochloride [Compound 14] |  |  | 7.55 | 6.57
[3-(1H-Indol-5-yl)-3-quinolin-6-yl-propyl]-methyl-amine [Compound 112] |  |  | 8.67 | 7.5
[3-(1H-Indol-6-yl)-3-(2-methoxy-phenyl)-propyl]-methyl-amine [Compound 34] |  |  | 7.63 | 6.59
[3-(1H-Indol-6-yl)-3-phenyl-propyl]-methyl-amine [Compound 41] |  |  | 8.01 | 7.63
[3-(3,4-Dichloro-phenyl)-3-(1H-indol-5-yl)-propyl]-methyl-amine [Compound 107] |  |  | 8.17 | 7.83
[3-(3,4-Dichloro-phenyl)-3-(7-fluoro-1H-indol-5-yl)-propyl]-methyl-amine [Compound 109] |  |  | 7.9 | 7.56
[3-(3-Chloro-1H-indazol-5-yl)-3-phenyl-propyl]-methyl-amine [Compound 57] |  |  | 8.14 | 7.06
[3-(4-Methoxy-1H-indol-5-yl)-3-phenyl-propyl]-methyl-amine [Compound 88] |  |  | 7.28 | 7.03
[3-(5-Methoxy-1H-indol-6-yl)-3-phenyl-propyl]-methyl-amine [Compound 86] |  |  | 8.01 | 7.63
[3-(7-Fluoro-1H-indol-5-yl)-3-(2-fluoro-phenyl)-propyl]-methyl-amine [Compound 95] |  |  | 7.22 | 8.32
[3-(7-Fluoro-1H-indol-5-yl)-3-(2-methoxy-phenyl)-propyl]-methyl-amine [Compound 101] |  |  | 7.24 | 7.58
[3-(7-Fluoro-1H-indol-5-yl)-3-(3-fluoro-phenyl)-propyl]-methyl-amine [Compound 93] |  |  | 7.76 | 8.41
[3-(7-Fluoro-1H-indol-5-yl)-3-(3-methoxy-phenyl)-propyl]-methyl-amine [Compound 100] |  |  | 7.79 | 7.95
[3-(7-Fluoro-1H-indol-5-yl)-3-(4-fluoro-phenyl)-propyl]-methyl-amine [Compound 94] |  |  | 7.75 | 8.0
[3-(7-Fluoro-1H-indol-5-yl)-3-(4-methoxy-phenyl)-propyl]-methyl-amine [Compound 98] |  |  | 7.88 | 8.3
[3-(7-Fluoro-1H-indol-5-yl)-3-naphthalen-2-yl-propyl]-methyl-amine [Compound 106] |  |  | 8.28 | 7.68
[3-(7-Methoxy-1H-indol-5-yl)-3-phenyl-propyl]-methyl-amine [Compound 22] |  |  | 7.66 | 8.39

More lines, main results first:

Ki [1] | Ki [2] | Compound | pKi SERT [1] | pKi NET [2]
3.24 nM | 141 nM | NCCC(c1ccc2ncccc2c1)c1ccc2[nH]ccc2c1 (centres unmarked) [Compound 120, 3-(1H-Indol-5-yl)-3-quinolin-6-yl-propylamine] |  | 
46.8 nM | 56.2 nM | CNCCC(c1ccc2[nH]ccc2c1)c1cccc2cc[nH]c12 (centres unmarked) [Compound 121, [3-(1H-Indol-7-yl)-3-(1H-indol-5-yl)-propyl]-methyl-amine] |  | 
47.9 nM | 112 nM | CNCCC(c1ccc2[nH]ccc2c1)c1ccc2nccnc2c1 (centres unmarked) [Compound 123, [3-(1H-Indol-5-yl)-3-quinoxalin-6-yl-propyl]-methyl-amine] |  | 
22.9 nM | 398 nM | Cn1cc(C#N)c2cc(C(CCN)c3ccccc3)cc(F)c21 (centres unmarked) [Compound 126, 5-(3-Amino-1-phenyl-propyl)-7-fluoro-1-methyl-1H-indole-3-carbonitrile] |  | 
8.32 nM | 51.3 nM | CNCCC(c1ccccc1)c1cc(F)c2c(c1)c(C#N)cn2C (centres unmarked) [Compound 127, 7-Fluoro-1-methyl-5-(3-methylamino-1-phenyl-propyl)-1H-indole-3-carbonitrile] |  | 
1.02 nM | 57.5 nM | CNCCC(c1ccccc1)c1ccc2[nH]c(C#N)cc2c1 (centres unmarked) [Compound 128, 5-(3-Methylamino-1-phenyl-propyl)-1H-indole-2-carbonitrile] |  | 
11.2 nM | 9.33 nM | CNCCC(c1ccc2[nH]ccc2c1)c1nc2ccccc2s1 (centres unmarked) [Compound 140, [3-Benzothiazol-2-yl-3-(1H-indol-5-yl)-propyl]-methyl-amine] |  | 
22.4 nM | 10.7 nM | CNCCC(c1ccccc1)c1ccc2occc2c1 (centres unmarked) [Compound 141, (3-Benzofuran-5-yl-3-phenyl-propyl)-methyl-amine] |  | 
10.7 nM | 10.5 nM | CNCCC(c1ccccc1)c1ccc2occc2c1 (centres unmarked) [Compound 142, (3-Benzofuran-5-yl-3-phenyl-propyl)-methyl-amine] |  | 
22.4 nM | 1.55 nM | CNCCC(c1ccccc1)c1ccc2sccc2c1 (centres unmarked) [Compound 143, (3-Benzo[b]thiophen-5-yl-3-phenyl-propyl)-methyl-amine] |  | 
